According to US11440932B2, “Surfactant compounds-clips for extraction and stabilization in solution of membrane proteins” (CENTRE NATIONAL DE LA RECHERCHE SCIENTIFIQUE, priority 2017, dated 2022):
Residues, ends and D or L forms follow the SMILES beside them. *: point of attachment. Palmitoyl = CCCCCCCCCCCCCCCC(=O)*

What was measured:
[1] = Critical micelle concentration (CMC) by DPH fluorescence; assay type: physicochemical; conditions: 50 mM tris-HCl, pH 8.0
Procedure: FIG. 4 represents the fluorescence (%) of DPH (1,6-diphenyl-1,3,5-hexatriene) in the presence of increasing concentrations (0.0001 mM, 0.001 mM, 0.01 mM, 0.1 mM, 1 mM and 10 mM) of clips (compounds of the invention), exemplified with the compounds #3.7e (C13, points represented by squares) and 3.7f (C18, points represented by circles). The experiment is carried out in triplicates. In accordance with Chattopadhyay, A. & London, E ([22]), the CMC corresponds to the concentration at which the breakage in the slope is observed, here at 20 μM for 3.7f and 2 mM for 3.7e (black symbols).
Procedure. The molecules of the invention were prepared in a range of concentrations extending from 0.1 μM to 10 mM in 50 mM tris-HCl, pH 8.0 and neutralized at this pH. To 80 μl of each solution (triplicate), the same volume of 10 μM of 1,6-diphenyl-1,3,5-hexatriene (DPH, Sigma, D208000) is added, prepared at 100 μM in tetrahydrofuran then diluted 10-fold in H2O. The increase in the fluorescence of the DPH occurs when the latter find micelles of clips into which it can insert itself (Chattopadhyay, A. & London, E. Fluorimetric determination of critical micelle concentration avoiding interference from detergent charge. Anal Biochem 139, 408-412 (1984) ([22])). The fluorescence is read with a Xenius SAFAS fluorimeter by exciting at 358 nm and recording the fluorescence emission at 430 nm, with slits of 9 to 10 nm for the excitation and the emission and a gain of 100 to 150, depending on the cases.
Results. The CMC of the detergents is the concentration starting from which they associate with one another to form micelles, in which, in aqueous solution, the hydrophobic portions are grouped together at the center and the hydrophilic regions are exposed to the solvent. […] A typical result obtained with a compound 3.7 provided with a C13 (3.7e) or C18 ([…]) aliphatic chain is illustrated in FIG. 4.

BmrA [2] = molecular target: T1, BmrA (Bacillus subtilis, UniProt O06967); assay: Extraction of BmrA from membranes (SDS-PAGE of supernatant); parameters: species or system bacterial; overexpressed in E. coli C41DE3; conditions: detergent 10 g/l unless indicated otherwise; 2 h at 4° C.
T1 construct: His tag; made in house; host or cells: E. coli C41(DE3)
Procedure: (§1) FIG. 6 depicts the extraction of the membrane proteins BmrA (panels A and C) and AcrB (panels B and D) using commercial detergents and the molecules of the invention (panels A and B, from left to right): SDS, DDM, FC12, TX100, compounds of the invention 1.4, 1.5, 2.3a, 2.3b, 2.3c, 2.3d, 2.3e, 2.3f, 2.3g, 2.3h, 2.3i, 3.7a, 3.7b; panel C: compounds of the invention 3.7c 0.8%, 3.7d 0.16%, 3.7e 0.8%, 3.7f 0.3%, 3.7g 0.4%, 3.7h 0.2%, 3.7i 0.07%, 3.7j 0.09%, 3.7k, 3.7l, 0.25%, 3.9a, 4.5a, 4.5b, 4.5c, 4.5d 0.34%, 4.6a, 4.6b, 4.6c, 4.6d, 5.3a, 5.3b, 5.3c 0.3%, 5.3d 0.3%; panel D: 3.7c, 3.7d, 3.7e, 3.7f, 3.7h, 3.7i 0.1%, 3.7j, 3.7k, 3.7l, 3.9a, 4.5a, 4.5b, 4.5c, 4.5d, 4.6a, 4.6b, 4.6c, 4.6d. The detergents are added at 10 g/l (1%), unless indicated otherwise. The equivalent of 20 μg of proteins of the extracted fraction after centrifugation at 100 000×g for 30 min is deposited on 10% SDS-PAGE, stained with Coomassie blue after migration. BmrA migrates in its monomeric form to the level of the 55 kDa band; AcrB migrates in its monomeric form to the level of the 100 kDa band. SDS=sodium dodecyl sulfate; DDM=β-D-dodecyl maltoside; FC12=foscholine-12; TX100=triton X-100.
(§2) The extraction capacity of the detergents of the series is tested on membranes in which BmrA or AcrB are strongly expressed. The extraction with the clips (molecules of the invention) is compared to that obtained with commercial detergents, used as reference.
(§3) Procedure. BmrA represents 25% of the proteins present in the overexpression system used (E. coli, C41DE3). These membranes are prepared as described previously (Matar-Merheb, R. et al. ([11])). The membranes containing AcrB (approximately 20% of the membrane proteins, same expression system as BmrA) were prepared as described previously (Seeger, M. A. et al. ([21])). The detergents are used at 10 g/l unless indicated otherwise, and the proteins diluted at 2 g/l in a 20 mM Tris-HCl buffer, pH 8.0, 100 mM NaCl, 15% glycerol, with protease inhibitors (Roche) added thereto at an amount of one tablet/100 ml. The mixture (T) is incubated for 2 h at 4° C. then centrifuged for 1 h at 4° C. at 100 000×g in order to separate the extracted fraction (supernatant, S) from that which is not extracted (pellet). The supernatants are deposited on 10% SDS-PAGE and stained with Coomassie blue after migration. The foscholine 12, DDM and LMNG originate from Anatrace, the SDS and Triton X100 originate from Sigma-Aldrich.

AcrB = molecular target: T2, AcrB (Escherichia coli, UniProt P31224); assay: Extraction of AcrB from membranes (SDS-PAGE of supernatant); parameters: species or system bacterial; same expression system (E. coli C41DE3); conditions: detergent 10 g/l unless indicated otherwise; 2 h at 4° C.
T2 construct: made in house; host or cells: E. coli C41(DE3)
Procedure: as §1, §2, §3

[3] = Diameter of micelles by dynamic light scattering (DLS); assay type: physicochemical; conditions: estimated micelle diameter by DLS; 30 mM tris-HCl, pH 8.0
Procedure: FIG. 5 depicts the dynamic light scattering (DLS) of clips, in intensity (%, column A on the left) and in number (%, column B on the right), as a function of the […] (nm). The estimated diameters are indicated on each panel (column A). Columns A and B, from top to bottom: compound 3.7c (10 mM, 5×CMC), compound 3.7d (10 mM, 5×CMC), compound 3.7e (2 mM, […]), compound 3.7f (10 mM, 500×CMC), compound 3.7h (1 mM, 100×CMC), compound 3.7j (2 mM, 100×CMC), compound 3.9a (1 mM, 50×CMC).
Another physicochemical parameter of the micelles of detergents is their diameter, assuming that they are spherical. This dimension is obtained by the light scattering (DLS) technique.
Procedure. The molecules of the invention tested were prepared in a range of concentrations extending from 0.1 to 1000×CMC in 30 mM tris-HCl, pH 8.0 and neutralized at this pH. The solutions are filtered on 0.22 μm. The measurement is carried out on 100 μl, in triplicate on a Zetasizer Nano-S from Malvern Instruments.

BmrA [4] = molecular target: T1, BmrA; assay: ATPase activity of BmrA after addition of detergents; assay type: biochemical, bacterial; produced in E. coli C41 DE3
Procedure: FIG. 7 depicts the effect of the detergents of the invention on the functionality of BmrA (ATPase activity, %). The membrane fraction enriched in BmrA (˜25%) diluted to 2 g/l has the compounds added to it at the concentrations (mM) indicated (panel A, from top to bottom: 3.7e 10.7 mM, 3.7e 8.6 mM, 3.7e 6.4 mM, 3.7e 4.3 mM, 3.7e 2.2 mM, 3.7e 1.1 mM, 3.7d 4 mM, 3.7d 3 mM, 3.7d 2 mM, 3.7d 1 mM, 3.7d 0.8 mM, 3.7d 0.6 mM, 3.7d 0.05 mM, 3.7d 0.03 mM, 3.7d 0.02 mM, 3.7c 13 mM, 3.7c 10.4 mM, 3.7c 10 mM, 3.7b 1.5 mM, 3.7b 0.7 mM, 3.7b 0.5 mM, 2.3gNa2 20.5 mM, 2.3gK2 19.3 mM, 2.3f 21.1 mM, 2.3e 22 mM, 2.3d 23.2 mM, 2.3a 3.2 mM, 1.5a 22 mM, DDM 20 mM, DDM 2 mM, DDM 10 mM, DOM 2 mM, DDM 1 mM, LMNG 10 mM, LMNG 1 mM, LMNG 0.1 mM, LMNG 0.01 mM, FA3 27 mM, FA3 9 mM, FA3 2 mM, FA3 1 mM, TX100 16 mM; panel B from top to bottom: compounds of the invention 5.3d 3.2 mM, 5.3c 3.3 mM, 5.3b 11.7 mM, 5.3b 2.9 mM, 5.3a 3 mM, 4.6c 14.6 mM, 4.6b 15.2 mM, 4.5c 18.6 mM, 4.5b 19.6 mM, 3.9a 8 mM, 3.9a 0.51 mM, 3.9a 0.31 mM, 3.9a 0.11 mM, 3.7l 12.01 mM, 3.7l 6.01 mM, 3.7l 3 mM, 3.7l 1 mM, 3.7k 10 mM, 3.7k 3 mM, 3.7j 3 mM, 3.7j 2 mM, 3.7j 1 mM, 3.7j 0.6 mM, 3.7j 0.03 mM, 3.7j 0.02 mM, 3.7j 1 mM, 3.7i 0.3 mM, 3.7h 3 mM, 3.7h 2 mM, 3.7h 1 mM, 3.7h 0.6 mM, 3.7h 0.58 mM, 3.7h 0.5 mM, 3.7h 0.35 mM, 3.7h 0.1 mM, 3.7h 0.5 mM, 3.7h 0.35 mM, 3.7h 0.1 mM, 3.7h 0.05 mM, 3.7h 0.03 mM, 3.7h 0.02 mM, 3.7g 12.5 mM, 3.7g 9 mM, 3.7g 7.5 mM, 3.7g 5 mM, 3.7g 3 mM, 3.7g 1 mM, 3.7f 3.2 mM, 3.7f 2 mM, 3.7f 1 mM, 3.7f 0.061 mM, 3.7f 0.031 mM, 3.7f 0.015 mM). After incubation for 2 h at 4° C., the ATPase activity is measured. The solutions are subsequently centrifuged for 1 h at 4° C., 100 000×g, and the supernatants deposited on 10% SDS-PAGE (cf. FIG. 8). The gray and black histograms correspond to the concentrations at which BmrA is partially (gray) or entirely (black) extracted, according to these SDS-PAGE. The ATPase activity is in % relative to that of the protein without compound, 0.7 μmol ATP hydrolyzed/min/mg of proteins.
The molecules of the invention which extract BmrA in the previous example were tested at different sub-solubilizing and solubilizing concentrations, to evaluate their impact on the native and functional state of the protein. The latter is monitored by the hydrolysis of ATP which is carried out by the protein during the transport cycle, coupled with translocation of the solute. As reported previously (Matar-Merheb, R. et al. ([11])), the ATPase activity of BmrA is a highly sensitive marker of the state of the protein, the latter being particularly sensitive to the detergents used during the extraction step, where said detergents replace the lipids on contact with the membrane protein.
Procedure. BmrA produced and enriched in the plasma membrane of E. coli C41 DE3 is prepared as described previously (Matar-Merheb, R. et al. ([11])). The membranes are diluted at 2 g/l in a 20 mM Tris-HCl buffer, pH 8.0, 100 mM NaCl, 15% glycerol, with protease inhibitors (Roche) added thereto at an amount of one tablet/100 ml. The mixture (T) is incubated for 2 h at 4° C. and the ATPase activity is measured using the coupled-enzyme system, separating off the vanadate-insensitive activity from the total activity, Centeno, F. et al. Expression of the sarcoplasmic reticulum Ca^2+-ATPase in yeast. FEBS Lett 354, 117-122 (1994) ([25])). The solutions are subsequently centrifuged for 1 h at 4° C. at 100 000×g in order to separate the extracted fraction (supernatant, S) from that which is not extracted (pellet). The supernatants are deposited on 10% SDS-PAGE and stained with Coomassie blue after migration (FIG. 8). DDM, LMNG (Chae, P. S. et al. ([6])), TritonX100 and FA3 (Lee, S. C. et al. (2013) ([9])) are tested as reference detergents. The DDM and LMNG originate from Anatrace, the Triton X100 originates from Sigma-Aldrich and the FA3 from Avanti-Polars.

T1 sequence (O06967 whole entry): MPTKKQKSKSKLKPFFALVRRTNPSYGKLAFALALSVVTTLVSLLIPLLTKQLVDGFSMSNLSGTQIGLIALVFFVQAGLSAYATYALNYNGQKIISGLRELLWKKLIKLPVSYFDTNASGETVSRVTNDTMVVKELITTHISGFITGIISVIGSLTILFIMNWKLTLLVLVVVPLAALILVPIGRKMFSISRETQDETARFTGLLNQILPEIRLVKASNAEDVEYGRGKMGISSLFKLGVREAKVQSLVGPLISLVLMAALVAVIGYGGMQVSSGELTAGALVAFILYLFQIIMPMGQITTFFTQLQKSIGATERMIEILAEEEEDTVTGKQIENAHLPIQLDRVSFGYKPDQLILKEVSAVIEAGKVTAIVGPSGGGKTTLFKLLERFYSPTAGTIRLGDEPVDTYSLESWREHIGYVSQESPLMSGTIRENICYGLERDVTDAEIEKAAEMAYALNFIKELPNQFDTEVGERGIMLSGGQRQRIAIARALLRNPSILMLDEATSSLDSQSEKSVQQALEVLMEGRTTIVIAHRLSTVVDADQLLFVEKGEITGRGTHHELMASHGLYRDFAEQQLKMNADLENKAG
T2 sequence (P31224 whole entry): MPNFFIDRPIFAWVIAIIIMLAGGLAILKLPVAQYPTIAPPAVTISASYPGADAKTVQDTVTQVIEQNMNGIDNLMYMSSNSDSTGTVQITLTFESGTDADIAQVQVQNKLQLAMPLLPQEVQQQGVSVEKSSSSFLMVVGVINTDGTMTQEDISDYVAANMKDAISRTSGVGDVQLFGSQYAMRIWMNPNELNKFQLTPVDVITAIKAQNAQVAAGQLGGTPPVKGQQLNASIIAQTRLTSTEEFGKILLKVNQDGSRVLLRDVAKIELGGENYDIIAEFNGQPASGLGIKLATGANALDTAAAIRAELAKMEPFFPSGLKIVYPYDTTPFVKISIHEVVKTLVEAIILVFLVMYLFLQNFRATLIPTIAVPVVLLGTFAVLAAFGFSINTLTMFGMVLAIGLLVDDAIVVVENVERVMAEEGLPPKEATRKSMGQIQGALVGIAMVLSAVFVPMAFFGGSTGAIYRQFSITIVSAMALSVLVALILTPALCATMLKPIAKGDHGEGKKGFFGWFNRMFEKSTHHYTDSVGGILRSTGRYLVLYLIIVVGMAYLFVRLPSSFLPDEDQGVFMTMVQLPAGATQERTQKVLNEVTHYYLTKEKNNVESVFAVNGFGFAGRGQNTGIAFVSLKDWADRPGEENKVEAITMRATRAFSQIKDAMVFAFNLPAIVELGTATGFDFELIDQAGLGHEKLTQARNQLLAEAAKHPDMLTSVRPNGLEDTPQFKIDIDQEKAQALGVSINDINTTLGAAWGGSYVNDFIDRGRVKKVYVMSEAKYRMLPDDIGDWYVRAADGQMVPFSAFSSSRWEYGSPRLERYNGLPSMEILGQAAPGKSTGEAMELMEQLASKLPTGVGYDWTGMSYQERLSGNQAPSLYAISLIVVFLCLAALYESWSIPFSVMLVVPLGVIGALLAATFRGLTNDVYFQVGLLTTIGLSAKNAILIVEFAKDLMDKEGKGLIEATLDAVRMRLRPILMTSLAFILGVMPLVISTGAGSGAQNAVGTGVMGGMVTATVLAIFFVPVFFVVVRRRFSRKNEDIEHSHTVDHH

Which “CMC” value [1] does the source give for `CCCCCCCCCCCCCCCCCCC(=O)N[C@@H](COCc1cn(CCOCCOCCOCCOCCOCCOC)nn1)C(=O)N[C@H](CCC(=O)O)C(=O)O` [Compound 3.7h] here?
The value was 0.01 mM.

And the “extraction of BmrA” value (BmrA [2])?
Its value is “extracting”.

What about the “extraction of AcrB” value (AcrB) of the same compound?
The value was “extracting”.

What about the “Ø, nm” value [3] of the same compound?
The value was 3-4 nm.

With `CCCCCCCCCCC(CCCCCCCCCC)(CO[C@@H]1O[C@H](CO)[C@@H](O[C@H]2O[C@H](CO)[C@@H](O)[C@H](O)[C@H]2O)[C@H](O)[C@H]1O)CO[C@@H]1O[C@H](CO)[C@@H](O[C@H]2O[C@H](CO)[C@@H](O)[C@H](O)[C@H]2O)[C@H](O)[C@H]1O` [LMNG, lauryl maltose neopentyl glycol, reference compound] as the compound, how does the “ATPase activity of BmrA” value (BmrA [4]; relative to protein without compound, at concentrations that solubilize/extract BmrA (LMNG 10 mM; DDM beyond 5 mM), 2 h at 4° C.) read?
The value was 25%.

What about the “impact on the activity of BmrA” value (BmrA [4]; up to 1 mM) of the same compound?
Its value is “relatively low impact”.

Which results are given for `CCCCCCCCCCCCCCCCCCC(=O)N[C@@H](COCc1cn(CCO[C@@H]2OC(CO)[C@@H](O)C(O)C2O)nn1)C(=O)N[C@H](CCC(=O)O)C(=O)O` (stereo partly shown) [Compound 3.7d]?
CMC [1]: 0.02 mM; extraction of BmrA (BmrA [2]): partially extracting; extraction of AcrB (AcrB): extracting; Ø, nm [3]: 5.5 nm

With `CCCCCCCCCCCCCCCC(=O)NC(CC(=O)O)C(=O)NC(CCC(=O)O)C(=O)O` (stereo not drawn) [Compound 4.5d] (Palmitoyl-Asp-Glu-OH; configuration not given here) as the compound, how does the “CMC” value [1] read?
Its value is 1 mM.

And the “extraction of BmrA” value (BmrA [2])?
The value was “extracting”.

What about the “extraction of AcrB” value (AcrB) of the same compound?
Its value is “extracting”.

With `CCCCCCCCCCCCC(=O)N[C@@H](CO)C(=O)N[C@H](CCC(=O)O)C(=O)O` [Compound 2.3f] as the compound, how does the “CMC” value [1] read?
The value was 0.8 mM.

What about the “extraction of BmrA” value (BmrA [2]) of the same compound?
Its value is “extracting”.

And the “extraction of AcrB” value (AcrB)?
Its value is “extracting”.
